In patent US20140303074A1, “Compositions and Methods For Inhibiting Immunodeficiency Virus Transcription” (The J. David Gladstone Institutes, priority 2011, published 2014):

Key:
Activated CD4 T-cells = assay: Cell toxicity in the HIV replication assay (FIG. 4A); settings: 50 μM, or 100 μM diflunisal
recombinant p300 = recombinant p300 (Homo sapiens, UniProt Q09472); assay: In vitro HAT assay (histone acetylation, 14C acetyl CoA, autoradiography); assay type: biochemical; settings: 1 μg recombinant p300, 10 μg Histone, pre-incubation 30° C. 30 min, densitometry; read-out: IC50 of inhibition of histone acetylation by p300
Protocol: 1 μg of HAT proteins (p300, CBP, pCAF, GCN5) and 10 μg of Histone were pre-incubated with or without sodium salicylate at various doses in an appropriate buffer (50 mM Hepes, pH 8.0, 10% Glycerol, 1 mM dithiothreitol (DTT)) at 30° C. for 30 min. After the pre-incubation period, 0.05 μCi of ^14C labeled acetyl CoA was added; the mixture was incubated for 1 hour. Samples were subjected to sodium dodecyl sulfate-polyacrylamide electrophoresis (SDS-PAGE). After electrophoresis, the gels were dried. Acetylation signals were detected in the dried gels by autoradiography. Band densities were measured by Image™ software (http://rsbweb(dot)nih(dot)gov/ij/); and the relative histone acetylation was plotted.
1 μg of recombinant p300 and 10 μg of Histone were pre-incubated with or without diflunisal at various doses in an appropriated buffer (50 mM Hepes, pH 8.0, 10% Glycerol, 1 mM DTT) at 30° C. for 30 min. 0.05 μCi of ^14C-labeled acetylCoA was then added, and the mixture was incubated for 1 hour. Histones were separated by SDS-PAGE (FIG. 1, bottom panel). Acetylation of Histone H3 and H4 were detected by autoradiography (FIG. 1, middle panel). […] Three different experimental systems were used to test the effect of diflunisal on HIV transcription and replication.

[1] = test system: p300- and Tat-mediated transactivation of HIV transcription; assay: HIV-1 LTR luciferase reporter assay in Hela cells co-transfected with Tat and p300; assay type: cell-based
Protocol: An HIV-1 LTR promoter plasmid linked to a luciferase reporter plasmid, with or without the expression vector for HIV-1 Tat and p300, was transfected into cells. Cells were treated with sodium salicylate at same time of transfection. 36 hours later, the cells were lysed with passive lysis buffer (Promega), and luciferase activity was measured using a luminometer.
The effect of diflunisal on HIV transcription was tested. A plasmid containing HIV-1 driving the luciferase reporter was co-transfected into Hela cells with or without expression vectors encoding Tat and/or p300. Co-transfection of the HIV LTR with either Tat or p300 enhanced LTR activity 4 fold (FIG. 2) and 12 fold (FIG. 2) respectively. Co-expression of both Tat and p300 synergistically activated the HIV promoter 48 fold (FIG. 2). […] The IC50 for this inhibition was 80 μM.

[2] = cited from earlier work
[3] = test system: replication-competent NL4-3/GFP virus; assay: HIV replication assay (GFP positive cells by flow cytometry); assay type: cell-based; settings: activated CD4 T-cells, MOI of 0.3, 50 μM, or 100 μM diflunisal, collected every 2 to 3 days
[4] = test system: VSV-G envelope pseudotyped NL4-3 luciferase reporter viruses; assay: microbe, parasite or virus in culture; assay type: cell-based, HIV

Sequence of recombinant p300 (Q09472 whole entry, species assumed): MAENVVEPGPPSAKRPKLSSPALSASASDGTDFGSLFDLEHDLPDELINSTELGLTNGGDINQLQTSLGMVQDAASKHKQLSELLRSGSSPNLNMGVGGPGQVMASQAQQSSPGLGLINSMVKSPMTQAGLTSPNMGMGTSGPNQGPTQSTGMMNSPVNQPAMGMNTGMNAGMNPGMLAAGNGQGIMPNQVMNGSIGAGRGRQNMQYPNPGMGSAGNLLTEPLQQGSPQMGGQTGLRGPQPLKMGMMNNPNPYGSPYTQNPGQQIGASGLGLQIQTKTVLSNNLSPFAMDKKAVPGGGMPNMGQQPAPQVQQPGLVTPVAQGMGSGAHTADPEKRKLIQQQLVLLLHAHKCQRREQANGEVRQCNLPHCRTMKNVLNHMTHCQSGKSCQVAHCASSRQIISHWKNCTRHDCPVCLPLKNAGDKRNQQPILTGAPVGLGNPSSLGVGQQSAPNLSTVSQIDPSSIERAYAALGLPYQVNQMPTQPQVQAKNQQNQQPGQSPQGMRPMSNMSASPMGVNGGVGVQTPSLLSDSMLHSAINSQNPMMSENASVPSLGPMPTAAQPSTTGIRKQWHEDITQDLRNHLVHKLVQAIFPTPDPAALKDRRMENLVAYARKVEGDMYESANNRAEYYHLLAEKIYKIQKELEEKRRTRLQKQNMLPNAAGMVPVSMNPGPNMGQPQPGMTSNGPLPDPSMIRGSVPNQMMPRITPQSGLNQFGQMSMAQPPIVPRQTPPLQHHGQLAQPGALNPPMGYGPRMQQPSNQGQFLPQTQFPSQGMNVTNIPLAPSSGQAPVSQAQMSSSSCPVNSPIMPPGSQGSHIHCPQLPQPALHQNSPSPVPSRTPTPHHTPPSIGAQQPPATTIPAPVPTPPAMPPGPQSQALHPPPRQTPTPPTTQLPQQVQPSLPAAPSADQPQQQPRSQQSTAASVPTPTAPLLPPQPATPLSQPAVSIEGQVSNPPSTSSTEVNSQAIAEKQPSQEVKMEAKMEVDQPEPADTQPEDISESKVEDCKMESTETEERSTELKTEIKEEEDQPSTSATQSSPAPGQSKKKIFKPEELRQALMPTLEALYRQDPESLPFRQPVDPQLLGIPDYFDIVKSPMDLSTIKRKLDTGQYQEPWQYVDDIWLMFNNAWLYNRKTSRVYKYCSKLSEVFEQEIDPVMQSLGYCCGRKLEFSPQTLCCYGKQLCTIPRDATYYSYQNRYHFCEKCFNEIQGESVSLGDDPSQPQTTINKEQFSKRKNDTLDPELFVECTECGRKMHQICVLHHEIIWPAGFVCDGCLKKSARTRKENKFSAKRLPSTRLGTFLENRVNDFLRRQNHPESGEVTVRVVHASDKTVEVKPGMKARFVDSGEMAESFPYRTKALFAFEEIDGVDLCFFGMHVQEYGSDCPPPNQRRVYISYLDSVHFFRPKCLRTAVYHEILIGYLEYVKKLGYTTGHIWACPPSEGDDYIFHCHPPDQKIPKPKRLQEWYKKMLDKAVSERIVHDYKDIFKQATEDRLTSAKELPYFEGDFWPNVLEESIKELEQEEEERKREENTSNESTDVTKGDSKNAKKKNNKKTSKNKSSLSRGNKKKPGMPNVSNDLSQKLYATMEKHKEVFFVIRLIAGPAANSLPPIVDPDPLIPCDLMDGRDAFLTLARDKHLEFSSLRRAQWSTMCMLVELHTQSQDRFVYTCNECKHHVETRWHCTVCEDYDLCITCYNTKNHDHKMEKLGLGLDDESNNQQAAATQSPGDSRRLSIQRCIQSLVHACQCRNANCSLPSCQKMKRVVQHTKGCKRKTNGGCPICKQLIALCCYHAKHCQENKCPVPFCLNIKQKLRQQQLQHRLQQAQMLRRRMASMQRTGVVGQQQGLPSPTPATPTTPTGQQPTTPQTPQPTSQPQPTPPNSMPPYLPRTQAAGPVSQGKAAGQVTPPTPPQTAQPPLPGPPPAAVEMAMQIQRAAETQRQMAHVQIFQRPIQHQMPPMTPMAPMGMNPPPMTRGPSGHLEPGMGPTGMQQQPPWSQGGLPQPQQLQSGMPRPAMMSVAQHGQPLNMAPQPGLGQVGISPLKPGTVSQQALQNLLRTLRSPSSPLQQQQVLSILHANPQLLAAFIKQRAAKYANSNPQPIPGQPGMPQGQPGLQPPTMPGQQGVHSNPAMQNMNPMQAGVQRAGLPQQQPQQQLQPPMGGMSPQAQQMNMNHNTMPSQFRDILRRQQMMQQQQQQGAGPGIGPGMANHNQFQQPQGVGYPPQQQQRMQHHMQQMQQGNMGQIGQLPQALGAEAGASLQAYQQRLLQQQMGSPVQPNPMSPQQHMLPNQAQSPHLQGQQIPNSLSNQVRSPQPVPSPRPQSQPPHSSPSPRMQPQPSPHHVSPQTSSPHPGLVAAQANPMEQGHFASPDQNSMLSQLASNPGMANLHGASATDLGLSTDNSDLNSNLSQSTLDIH

Compound: O=C(O)c1cc(-c2ccc(F)cc2F)ccc1O [Diflunisal, 2′,4′-difluoro-4-hydroxy-3-biphenylcarboxylic acid]
- Cell toxicity (FIG. 4A) (Activated CD4 T-cells): did not show cell toxicity
- IC50 (recombinant p300): 1240 µM
- IC50 ([1]; Human immunodeficiency virus 1, HeLa, read-out: IC50 for inhibition of p300- and Tat-mediated transactivation of HIV transcription): 80 µM
- Block of p300- and Tat-mediated transactivation of HIV transcription ([1]; at 0.3 mM, Hela cells): completely blocked
- Plasma trough concentrations ([2]; clinical dosage 0.5-1.0 gram per day): 100 to 300 µM
- Bioavailability ([2]; in vivo): 80-90%
- Half-life ([2]; in vivo): 8 to 12 h
- Percentage of infected cells (GFP positive cells), FIG. 4B [3]: suppressed and delayed peak of infection in a dose dependent manner
- Inhibition of HIV infection (FIG. 3) [4]: inhibited HIV infection in a dose dependent manner
- IC50 ([4]; Human immunodeficiency virus 1, NL43, T-cell, 24 h, read-out: IC50 for inhibition of HIV infection): 148 µM
